pIC50: −log10 of the molar value. Activity calls are given as the source filed them.
Legend:
SW480 [1] = assay: Decrease in survivin expression in human SW480 cells at 20 uM after 24 hrs by immunoblot analysis; type: functional, cell-based
SW480 [2] = assay: Induction of cell cycle arrest in human SW480 cells by accumulation at G0/G1 phase at 20 uM after 48 hrs by flow cytometry; type: functional, cell-based
LS180 [3] = assay: Inhibition of survivin expression in parent human LS180 cells at 20 uM by immunoblot analysis; type: functional, cell-based
SW480 [4] = assay: Reversal of decrease in isoprenylated Ras level in human SW480 cells at 20 uM after 48 hrs by immunoblot analysis in presence of squalene; type: functional, cell-based
SW480 [5] = assay: Reversal of reduction in survivin expression in human SW480 cells at 20 uM after 48 hrs by immunoblot analysis in presence of 100 uM mevalonate; type: functional, cell-based
SW480 [6] = assay: Reversal of growth inhibition of human SW480 cells at 20 uM after 48 hrs by […] in presence of squalene; type: functional, cell-based
LS180 [7] = assay: Inhibition of survivin expression in survivin gene transfected human LS180 cells at 20 uM immunoblot analysis; type: functional, cell-based
LS180 [8] = assay: Blockade of growth inhibition of survivin gene transfected human LS180 cells after 72 hrs by MTS method; type: functional, cell-based
SW480 [9] = assay: Decrease in isoprenylated Ras level in human SW480 cells at 20 uM after 48 hrs by immunoblot analysis; type: functional, cell-based
SW480 [10] = assay: Induction of cell cycle arrest in human SW480 cells by accumulation at S phase at 20 uM after 48 hrs by flow cytometry; type: functional, cell-based
SW480 [11] = assay: Growth inhibition of human SW480 cells after 96 hrs by MTS assay; type: functional, cell-based; details: SW480, 96 h
SW480 [12] = assay: Decrease in survivin expression in human SW480 cells at 20 uM after 48 hrs by immunoblot analysis; type: functional, cell-based
SW480 [13] = assay: Reversal of inhibition of FBS-stimulated increase in Ras protein expression in human SW480 cells assessed as GTP-bound protein at 20 uM by immunoblot analysis; type: functional, cell-based
SW480 [14] = assay: Induction of apoptosis in human SW480 cells assessed as increase in hypodiploid DNA content at 20 uM after 48 hrs by flow cytometry relative to control; type: functional
SW480 [15] = assay: Induction of cell cycle arrest in human SW480 cells by accumulation at G2/M phase at 20 uM after 48 hrs by flow cytometry; type: functional, cell-based
LS180 [16] = assay: Blockade of growth inhibition of human LS180 cells after 72 hrs by MTS method; type: functional, cell-based
HT-29 = assay: Growth inhibition of human HT29 cells after 96 hrs by MTS assay; type: functional, cell-based; details: HT-29, 96 h
SW480 [17] = assay: Reversal of decrease in isoprenylated Ras level in human SW480 cells at 20 uM after 48 hrs by immunoblot analysis in presence of geranylgeranyl pyrophosphate; type: functional, cell-based
SW480 [18] = assay: Reversal of growth inhibition of human SW480 cells at 20 uM after 48 hrs by […] in presence of farnesyl pyrophosphate; type: functional, cell-based
SW480 [19] = assay: Effect on Bax expression in human SW480 cells; type: functional, cell-based
[20] = biological target: RAC-alpha serine/threonine-protein kinase (Homo sapiens) (UniProt P31749); assay: Inhibition of FBS-stimulated increase in Akt phosphorylation in human SW480 cells at 20 uM by immunoblot analysis; type: cell-based
SW480 [21] = assay: Decrease in survivin mRNA expression in human SW480 cells at 20 uM after 48 hrs by RT-PCR technique; type: functional
SW480 [22] = assay: Induction of apoptosis in human SW480 cells at 20 uM after 48 hrs by annexin-V propidium iodide staining method; type: functional
SW480 [23] = assay: Reversal of decrease in isoprenylated Ras level in human SW480 cells at 20 uM after 48 hrs by immunoblot analysis in presence of farnesyl pyrophosphate; type: functional, cell-based
SW480 [24] = assay: Inhibition of FBS-stimulated increase in Ras protein expression in human SW480 cells assessed as GTP-bound protein at 20 uM by immunoblot analysis; type: functional, cell-based
SW480 [25] = assay: Reversal of growth inhibition of human SW480 cells at 20 uM after 48 hrs by […] in presence of geranylgeranyl pyrophosphate; type: functional, cell-based
SW480 [26] = assay: Reversal of reduction in survivin mRNA expression in human SW480 cells at 20 uM after 48 hrs by RT-PCR technique in presence of 100 uM mevalonate; type: functional, cell-based
SW480 [27] = assay: Reversal of growth inhibition of human SW480 cells at 20 uM after 48 hrs by MTS assay in presence of >50 uM mevalonate; type: functional, cell-based
SW480 [28] = assay: Reversal of decrease in isoprenylated Ras level in human SW480 cells at 20 uM after 48 hrs by immunoblot analysis in presence of mevalonate; type: functional, cell-based
[29] = Growth inhibition of human LS180 cells after 96 hrs by MTS assay; type: functional, cell-based; details: LS180, 96 h

Sequence of RAC-alpha serine/threonine-protein kinase (Homo sapiens) (P31749 whole entry): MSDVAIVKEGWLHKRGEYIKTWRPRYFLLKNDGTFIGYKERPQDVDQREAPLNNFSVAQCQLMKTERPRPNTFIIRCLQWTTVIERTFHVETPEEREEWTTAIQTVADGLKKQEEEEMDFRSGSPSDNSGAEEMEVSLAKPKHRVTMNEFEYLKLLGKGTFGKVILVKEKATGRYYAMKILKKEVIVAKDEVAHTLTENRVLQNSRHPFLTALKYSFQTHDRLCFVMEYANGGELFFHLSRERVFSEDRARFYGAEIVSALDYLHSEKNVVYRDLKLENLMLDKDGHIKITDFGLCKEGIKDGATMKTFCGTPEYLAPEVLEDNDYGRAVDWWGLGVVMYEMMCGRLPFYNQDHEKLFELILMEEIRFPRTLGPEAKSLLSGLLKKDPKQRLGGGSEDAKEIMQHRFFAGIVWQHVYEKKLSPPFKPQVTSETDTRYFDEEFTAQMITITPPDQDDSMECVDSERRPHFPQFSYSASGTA

O=c1cc(N2CCOCC2)oc2c(-c3ccccc3)cccc12
active: Activity (SW480 [1])

CC[C@H](C)C(=O)O[C@H]1C[C@@H](C)C=C2C=C[C@H](C)[C@H](CC[C@@H]3C[C@@H](O)CC(=O)O3)[C@H]21 [LOVASTATIN]
60%: Activity (SW480 [21])
active: Activity (LS180 [3]) | Activity (SW480 [5]) | Activity (LS180 [7]) | Activity (LS180 [8]) Dose-dependent effect | Activity (SW480 [9]) | Activity (SW480 [12]) | Activity (SW480 [13]) | Activity (LS180 [16]) | Activity (SW480 [17]) | Activity (SW480 [18]) | Activity [20] | Activity (SW480 [23]) | Activity (SW480 [24]) | Activity (SW480 [25]) | Activity (SW480 [26]) | Activity (SW480 [27]) | Activity (SW480 [28])
inactive: Activity (SW480 [2]) | Activity (SW480 [4]) | Activity (SW480 [6]) | Activity (SW480 [10]) | Activity (SW480 [15]) | Activity (SW480 [19])
20.7%: Activity (SW480 [14])
5.15: pIC50 (SW480 [11])
24.2%: Activity (SW480 [22])
4.33: pIC50 (HT-29)
4.60: pIC50 [29]
